In PubChem BioAssay AID248 (DTP/NCI, 2004):
Several values for one entry are separate records, joined by “and”; a condition that tells them apart may be missing. Equal values may be shown once. Inconclusive results and toxic doses are left out. Rule as the data show it: active = T/C of 150% or more; inactive = T/C below 125%.

Test system: L1210 leukemia ip in BDF1 mice, survival T/C
Experiment: NCI In Vivo Anticancer Drug Screen. Data for tumor model L1210 Leukemia (intraperitoneal) in B6D2F1 (BDF1) mice
Settings: endpoint: mean survival time, higher = longer survival
Summary of the method: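 Value reflects the ratio of survival in compound-treated mice to survival in vehicle-treated controls, with both groups carrying the same transplanted tumor.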

[1] = dose: 100.0 mg/kg/injection, schedule: Q01DX009 (ip), vehicle: saline with Tween-80
[2] = dose: 100.0 mg/kg/injection, schedule: Q04DX003 (ip), vehicle: Klucel (hydroxypropylcellulose) (HPC)
[3] = dose: 200.0 mg/kg/injection, schedule: Q04DX003 (ip), vehicle: Klucel (hydroxypropylcellulose) (HPC)
[4] = dose: 400.0 mg/kg/injection, schedule: Q04DX003 (ip), vehicle: Klucel (hydroxypropylcellulose) (HPC)
[5] = dose: 100.0 mg/kg/injection, schedule: Q04DX003 (ip), vehicle: saline
[6] = dose: 25.0 mg/kg/injection, schedule: Q01DX009 (ip), vehicle: saline
[7] = dose: 50.0 mg/kg/injection, schedule: Q01DX009 (ip), vehicle: saline
[8] = dose: 200.0 mg/kg/injection, schedule: Q01DX001 (ip), vehicle: saline
[9] = dose: 400.0 mg/kg/injection, schedule: Q01DX001 (ip), vehicle: saline

Measured: T/C

CCOC(=O)c1ccc(N2C(C#N)c3ccccc3OC2c2ccccc2O)cc1 (centres undefined)
inactive: dose: 100.0 mg/kg/injection, schedule: Q01DX001 (ip), vehicle: saline with Tween-80 91 % of control | [1] 93 % of control and 106 % of control | dose: 100.0 mg/kg/injection, schedule: Q04DX002 (ip), vehicle: saline with Tween-80 95 % of control and 92 % of control | dose: 100.0 mg/kg/injection, schedule: Q04DX003 (ip), vehicle: saline with Tween-80 90 % of control | dose: 200.0 mg/kg/injection, schedule: Q01DX001 (ip), vehicle: saline with Tween-80 88 % of control | dose: 200.0 mg/kg/injection, schedule: Q01DX009 (ip), vehicle: saline with Tween-80 94 % of control and 90 % of control | dose: 200.0 mg/kg/injection, schedule: Q04DX002 (ip), vehicle: saline with Tween-80 95 % of control and 97 % of control | dose: 200.0 mg/kg/injection, schedule: Q04DX003 (ip), vehicle: saline with Tween-80 97 % of control | dose: 400.0 mg/kg/injection, schedule: Q01DX001 (ip), vehicle: saline with Tween-80 88 % of control | dose: 400.0 mg/kg/injection, schedule: Q01DX009 (ip), vehicle: saline with Tween-80 94 % of control and 87 % of control | dose: 400.0 mg/kg/injection, schedule: Q04DX002 (ip), vehicle: saline with Tween-80 95 % of control and 100 % of control | dose: 400.0 mg/kg/injection, schedule: Q04DX003 (ip), vehicle: saline with Tween-80 89 % of control

Nc1cc2c(cc1N)C(=O)c1ccccc1C2=O
inactive: dose: 100.0 mg/kg/injection, schedule: Q01DX001 (ip), vehicle: acetone 95 % of control | [2] 101 % of control | dose: 200.0 mg/kg/injection, schedule: Q01DX001 (ip), vehicle: acetone 98 % of control | [3] 94 % of control | dose: 400.0 mg/kg/injection, schedule: Q01DX001 (ip), vehicle: acetone 102 % of control | [4] 90 % of control

CN(C)Cc1ccccc1C(=O)C(c1ccccc1)c1ccccc1
inactive: dose: 55.0 mg/kg/injection, schedule: Q01DX Z (ip), vehicle: methylcellulose (MC) 100 % of control | dose: 83.0 mg/kg/injection, schedule: Q01DX Z (ip), vehicle: methylcellulose (MC) 94 % of control

CCOC(=O)c1ccccc1NC(=O)c1ccccc1
inactive: dose: 100.0 mg/kg/injection, schedule: Q04DX002 (ip), vehicle: Klucel (hydroxypropylcellulose) (HPC) 100 % of control | dose: 200.0 mg/kg/injection, schedule: Q04DX002 (ip), vehicle: Klucel (hydroxypropylcellulose) (HPC) 103 % of control | dose: 400.0 mg/kg/injection, schedule: Q04DX002 (ip), vehicle: Klucel (hydroxypropylcellulose) (HPC) 103 % of control

CC(=O)c1c(C)cc2cc(C)cc(O)c2c1O
inactive: [2] 97 % of control | [3] 101 % of control | [4] 101 % of control

CCC1(CC)NC(=O)N(CCOS(C)(=O)=O)C1=O
inactive: dose: 50.0 mg/kg/injection, schedule: Q04DX003 (ip), vehicle: saline 95 % of control | [5] 115 % of control | dose: 200.0 mg/kg/injection, schedule: Q04DX003 (ip), vehicle: saline 101 % of control | dose: 400.0 mg/kg/injection, schedule: Q04DX003 (ip), vehicle: saline 100 % of control

Cc1c(C)c2c(c(C)c1O)SC(CC(=O)O)C(=O)O2 (centres undefined)
inactive: [2] 100 % of control | [3] 100 % of control | [4] 100 % of control

CCn1cnc2c(SC3CCCC3)ncnc21
inactive: dose: 15.0 mg/kg/injection, schedule: Q01DX015 (ip), vehicle: carboxymethylcellulose (CMC) 96 % of control | dose: 30.0 mg/kg/injection, schedule: Q01DX015 (ip), vehicle: carboxymethylcellulose (CMC) 104 % of control | dose: 62.0 mg/kg/injection, schedule: Q01DX015 (ip), vehicle: carboxymethylcellulose (CMC) 110 % of control | dose: 62.0 mg/kg/injection, schedule: Q01DX Z (ip), vehicle: carboxymethylcellulose (CMC) 95 % of control | dose: 125.0 mg/kg/injection, schedule: Q01DX015 (ip), vehicle: carboxymethylcellulose (CMC) 124 % of control | dose: 125.0 mg/kg/injection, schedule: Q01DX Z (ip), vehicle: carboxymethylcellulose (CMC) 113 % of control | dose: 500.0 mg/kg/injection, schedule: Q01DX Z (ip), vehicle: carboxymethylcellulose (CMC) 101 % of control

CNC(=O)CCN1CCN(CC/C=C2\c3ccccc3Sc3ccc(Cl)cc32)CC1
inactive: dose: 1.56 mg/kg/injection, schedule: Q03HX024 (ip), vehicle: saline 95 % of control | dose: 2.05 mg/kg/injection, schedule: Q01DX009 (ip), vehicle: saline 90 % of control | dose: 3.12 mg/kg/injection, schedule: Q03HX024 (ip), vehicle: saline 100 % of control | dose: 4.1 mg/kg/injection, schedule: Q01DX009 (ip), vehicle: saline 94 % of control | dose: 8.2 mg/kg/injection, schedule: Q01DX009 (ip), vehicle: saline 111 % of control | dose: 16.5 mg/kg/injection, schedule: Q01DX009 (ip), vehicle: saline 111 % of control | dose: 18.75 mg/kg/injection, schedule: Q01DX001 (ip), vehicle: saline 106 % of control | dose: 25.0 mg/kg/injection, schedule: Q04DX003 (ip), vehicle: saline 122 % of control | dose: 37.5 mg/kg/injection, schedule: Q01DX001 (ip), vehicle: saline 108 % of control | dose: 75.0 mg/kg/injection, schedule: Q01DX001 (ip), vehicle: saline 106 % of control | [5] 114 % of control | dose: 150.0 mg/kg/injection, schedule: Q01DX001 (ip), vehicle: saline 106 % of control

CC1CCCNC1C (centres undefined)
inactive: [6] 95 % of control | [7] 103 % of control | [1] 102 % of control | dose: 100.0 mg/kg/injection, schedule: Q01DX009 (ip), vehicle: saline 100 % of control

CN(N=O)P(=O)(Nc1ccccc1)Nc1ccccc1
inactive: [6] 111 % of control | [7] 117 % of control | dose: 66.0 mg/kg/injection, schedule: Q01DX009 (ip), vehicle: other 103 % of control | dose: 100.0 mg/kg/injection, schedule: Q01DX009 (ip), vehicle: other 100 % of control | dose: 100.0 mg/kg/injection, schedule: Q04DX003 (ip), vehicle: saline sonified 122 % of control | dose: 150.0 mg/kg/injection, schedule: Q01DX009 (ip), vehicle: other 88 % of control

C/C(=C\Cn1cc([N+](=O)[O-])ccc1=O)CCC(=O)O
inactive: dose: 100.0 mg/kg/injection, schedule: Q01DX009 (ip), vehicle: water 108 % of control | dose: 100.0 mg/kg/injection, schedule: Q04DX003 (ip), vehicle: other 102 % of control | dose: 200.0 mg/kg/injection, schedule: Q01DX009 (ip), vehicle: water 96 % of control | dose: 200.0 mg/kg/injection, schedule: Q04DX003 (ip), vehicle: other 98 % of control | dose: 400.0 mg/kg/injection, schedule: Q01DX009 (ip), vehicle: water 97 % of control | dose: 400.0 mg/kg/injection, schedule: Q04DX003 (ip), vehicle: other 102 % of control

ClC(Cl)(Cl)C1OCOC(C(Cl)(Cl)Cl)OCO1 (centres undefined)
inactive: dose: 100.0 mg/kg/injection, schedule: Q01DX009 (ip), vehicle: Klucel (hydroxypropylcellulose) (HPC) 94 % of control | [2] 98 % of control | dose: 200.0 mg/kg/injection, schedule: Q01DX009 (ip), vehicle: Klucel (hydroxypropylcellulose) (HPC) 93 % of control | [3] 98 % of control | dose: 400.0 mg/kg/injection, schedule: Q01DX009 (ip), vehicle: Klucel (hydroxypropylcellulose) (HPC) 94 % of control | [4] 102 % of control

CCC[N+]12CC=C(CO)C1C(O)CC2 (centres undefined)
inactive: dose: 100.0 mg/kg/injection, schedule: Q01DX001 (ip), vehicle: saline 103 % of control | [8] 100 % of control | [9] 110 % of control

O=C(OC1CCC/C=C\CCCC1)c1ccc(Cl)cc1 (centres undefined)
inactive: [8] 104 % of control | [9] 98 % of control
